Assay results from patent publication US20240368655A1, “CLICK HANDLE-MODIFIED DEOXY-FLUOROARABINO NUCLEIC ACID AS A SYNTHETIC GENETIC POLYMER CAPABLE OF POST-POLYMERIZATION FUNCTIONALIZATION” (THE TRUSTEES OF BOSTON COLLEGE, priority 2023, published 2024).
“Also recorded” adds a separate entry of the source.

Biological target: T1, Thermococcus gorgonarius (Tgo) DNA polymerase (Thermococcus gorgonarius, UniProt P56689)
T1 construct: made in house
T1 sequence (P56689 1-773): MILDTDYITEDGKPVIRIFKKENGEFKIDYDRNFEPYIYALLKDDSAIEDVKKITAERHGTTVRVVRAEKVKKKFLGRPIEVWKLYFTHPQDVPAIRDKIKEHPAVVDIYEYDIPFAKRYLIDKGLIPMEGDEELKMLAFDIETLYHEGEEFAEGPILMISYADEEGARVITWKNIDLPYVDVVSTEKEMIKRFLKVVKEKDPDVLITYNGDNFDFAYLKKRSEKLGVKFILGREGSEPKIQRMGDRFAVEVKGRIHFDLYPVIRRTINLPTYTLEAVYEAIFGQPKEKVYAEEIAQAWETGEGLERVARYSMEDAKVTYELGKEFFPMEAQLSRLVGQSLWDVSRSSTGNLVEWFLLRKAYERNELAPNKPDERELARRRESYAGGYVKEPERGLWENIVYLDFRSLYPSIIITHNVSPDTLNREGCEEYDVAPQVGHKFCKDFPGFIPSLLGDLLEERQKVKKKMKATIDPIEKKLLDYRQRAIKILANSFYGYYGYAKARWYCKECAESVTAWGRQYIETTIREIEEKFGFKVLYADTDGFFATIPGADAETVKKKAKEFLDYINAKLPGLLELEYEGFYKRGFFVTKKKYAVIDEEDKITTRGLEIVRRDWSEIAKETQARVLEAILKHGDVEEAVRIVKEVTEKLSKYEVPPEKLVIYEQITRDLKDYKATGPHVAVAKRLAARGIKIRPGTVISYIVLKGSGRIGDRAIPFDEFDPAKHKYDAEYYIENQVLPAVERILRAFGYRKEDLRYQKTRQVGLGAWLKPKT
Assay: DNA-templated primer extension by Tgo DNA polymerase
Assay type: biochemical
Settings: with FANA ATP, CTP, GTP, DNA primer-template complex
Protocol: It was hypothesized that Thermococcus gorgonarius (Tgo) DNA polymerase could tolerate the 5-1,7-octadiyne modification on uracil and that the enzyme could incorporate FANA nucleotides. To investigate the hypothesis, a primer extension experiment was performed, in which a DNA primer-template complex was enzymatically extended by Tgo DNA polymerase using commercially available FANA nucleotide triphosphates (A, C, and G) as well as C8-alkyne-FANA UTP 11. The DNA template was prepared to contain a 40-nucleotide (nt) random region to avoid sequence bias, as well as a 24-nt poly-AAC tail at the 3′-end, which would not be transcribed, to provide a mobility difference between extension product (76 nt) and DNA template (100 nt) in denaturing polyacrylamide gel electrophoresis (PAGE). The DNA primer was labeled by a 5′-Cy5 fluorophore to allow easy detection of the extended product. A control experiment in which all FANA nucleotide triphosphates comprising natural bases (A, C, G and T) was also conducted to determine the impact of the 5-1,7-octadiyne modification of uracil on the primer extension reactivity. Tgo DNA polymerase was added in various amounts to confirm that the generation of the extended products was mediated by the Tgo DNA polymerase in a dose-dependent fashion. […]

5-octa-1,7-diynyluracil 2′-deoxy-2′-fluoroarabino triphosphate [compound 11]
recognition and incorporation as substrate in primer extension: produced the full-length products in a polymerase dose-dependent fashion
recognition and incorporation as substrate in primer extension (listed as C8-alkyne-FANA UTP): successfully served as a substrate; also recorded: quantitatively incorporated
